Measurements taken from patent US8129427B2, “2-phenylethylamino derivatives as calcium and/or sodium channel modulators” (Newron Pharmaceuticals S.p.A., priority 2005, dated 2012).
pIC50: −log10 of the molar value.

Assays:
[1] = test system: amphetamine-chlordiazepoxide induced increase in locomotor activity in mice; assay: Amphetamine and chlordiazepoxide-induced hyperlocomotion in mice; type: in vivo, mouse; settings: test compound 5 mg/kg given twice, FIG. 1
Experimental: In this model, mice are treated with a mixture of d-amphetamine plus an anxiolytic dose of the benzodiazepine, chlordiazepoxide (Rushton R, Steinberg H. Combined effects of chlordiazepoxide and d-amphetamine on activity of rats in an unfamiliar environment. Nature 1966; 211:1312-3; R. Arban, G. Maraia, K. Brackenborough, L. Winyard, A. Wilson, P. Gerrard, C. Large. Evaluation of the effects of lamotrigine, valproate and carbamazepine in a rodent model of mania Behavioural Brain Research, 158: 123-132). The model has been claimed to mimic some aspects of mania in bipolar disorder. Importantly, the hyperactivity induced by the mixture of d-amphetamine and chlordiazepoxide could be prevented by prior administration of the established mood stabilizer, lithium, as well as other mood stabilizers drugs (e.g. magnesium valproate and carbamazepine). […]
Amphetamine (AMP) (2.5 mg/kg) plus chlordiazepoxide hydrochloride (CDZ) (3 mg/kg/ip) were administered to male Albino Swiss mice (25-32 g) in a volume of 10 ml/kg. The locomotor activity was recorded using Opto-M3 System (Columbus Instruments) which is multi-channel activity monitor. […] The locomotor activity (ambulation and total activity count) was evaluated for 30 min. […]
Statistical analysis: the data were evaluated by an analysis of variance (ANOVA), followed, when appropriate, by individual comparison with the control using Dunnett's test. […]

[2] = test system: PCP induced deficits in the 5-CSRT task in DBA/2N mice; assay: Cognitive impairment in schizophrenia: PCP-induced deficits in five-choice serial reaction time task; type: in vivo, mouse
L-type calcium channels = type: cell-based, mouse; settings: AtT20/D16v-F2 cells, ω-conotoxin 1 μM, 100 mM KCl depolarization
[3] = 10 mg/Kg i.p. + PCP (1.5 mg/kg)

| SMILES | effect on amphetamine-chlordiazepoxide induced increase in locomotor activity [1] | N of anticipatory resposnses [2, 3] | N of perseverative responses [2, 3] | N of anticipatory resposnses ([2]; 10 mg/Kg i.p. + vehicle) | N of perseverative responses ([2]; 10 mg/Kg i.p. + vehicle) | pIC50 (L-type calcium channels) |
| --- | --- | --- | --- | --- | --- | --- |
| CCCCOc1cccc(CCN(CC(=O)N(C)C)CC2CCOC2)c1.Cl (racemic) [Example 96, 2-[[2-(3-Butoxy-phenyl)-ethyl]-(tetrahydrofuran-3-ylmethyl)amino]-N,N-dimethyl-acetamide hydrochloride] | preventing the amphetamine-chlordiazepoxide induced increase in locomotor activity | 3.7 ± 1.6 | 15.7 ± 3.1 | 3.3 ± 0.7 | 20.9 ± 1.3 |  |
| C[C@H](NCc1ccc(OCc2ccccc2F)cc1)C(N)=O [ralfinamide, (S)-(+)-2-[4-(2-fluoro-benzyloxy)-benzylamino]-propanamide, reference compound] |  |  |  |  |  | 4.59 |
